This note sets out measurements from ChEMBL document CHEMBL4028801, “A multifactorial approach to hepatobiliary transporter assessment enables improved therapeutic compound development” (Toxicol Sci, 2013).

pIC50: −log10 of the molar value. Structures can show the parent of a compound that is named as a salt.

Test [1] has as its target T1, ATP-binding cassette sub-family C member 4 (Homo sapiens, UniProt O15439).
T1 sequence (O15439 whole entry): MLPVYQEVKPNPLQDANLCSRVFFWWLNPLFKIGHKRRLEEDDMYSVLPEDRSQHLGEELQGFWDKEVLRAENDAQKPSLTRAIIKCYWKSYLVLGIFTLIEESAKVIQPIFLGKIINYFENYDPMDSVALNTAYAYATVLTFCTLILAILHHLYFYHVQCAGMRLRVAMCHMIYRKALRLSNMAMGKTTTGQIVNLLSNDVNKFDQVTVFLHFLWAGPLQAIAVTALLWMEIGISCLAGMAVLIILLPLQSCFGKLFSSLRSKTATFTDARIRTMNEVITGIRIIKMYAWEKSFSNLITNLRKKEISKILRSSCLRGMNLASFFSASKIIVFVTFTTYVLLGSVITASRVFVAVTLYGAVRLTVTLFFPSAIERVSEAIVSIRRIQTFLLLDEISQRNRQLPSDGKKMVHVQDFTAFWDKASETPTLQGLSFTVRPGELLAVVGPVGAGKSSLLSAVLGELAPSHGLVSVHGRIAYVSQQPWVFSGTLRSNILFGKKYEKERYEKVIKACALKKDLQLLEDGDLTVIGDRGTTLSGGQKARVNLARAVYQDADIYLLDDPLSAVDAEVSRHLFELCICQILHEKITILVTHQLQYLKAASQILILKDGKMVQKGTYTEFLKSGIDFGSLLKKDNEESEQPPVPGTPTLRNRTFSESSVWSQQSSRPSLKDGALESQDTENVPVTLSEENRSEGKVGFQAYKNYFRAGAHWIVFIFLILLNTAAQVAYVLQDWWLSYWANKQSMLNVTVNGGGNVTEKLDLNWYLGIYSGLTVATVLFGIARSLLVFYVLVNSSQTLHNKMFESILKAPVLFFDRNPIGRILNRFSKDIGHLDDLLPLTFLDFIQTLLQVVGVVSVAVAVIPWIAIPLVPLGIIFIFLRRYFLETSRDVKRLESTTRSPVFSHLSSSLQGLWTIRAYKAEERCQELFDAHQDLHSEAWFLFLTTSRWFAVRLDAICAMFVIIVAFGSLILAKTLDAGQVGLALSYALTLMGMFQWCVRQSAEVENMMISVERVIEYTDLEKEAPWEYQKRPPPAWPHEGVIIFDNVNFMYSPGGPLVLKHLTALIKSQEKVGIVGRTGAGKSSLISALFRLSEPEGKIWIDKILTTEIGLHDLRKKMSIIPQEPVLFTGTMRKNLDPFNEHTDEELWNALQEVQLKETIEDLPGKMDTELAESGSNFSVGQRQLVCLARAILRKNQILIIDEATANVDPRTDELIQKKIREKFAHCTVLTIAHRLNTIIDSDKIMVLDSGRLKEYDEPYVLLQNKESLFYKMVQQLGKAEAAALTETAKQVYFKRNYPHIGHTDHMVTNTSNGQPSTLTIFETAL
Briefly: Inhibition of human MRP4 overexpressed in Sf9 cell membrane vesicles assessed as uptake of [3H]-estradiol-17beta-D-glucuronide in presence of ATP and GSH measured after 20 mins by membrane vesicle transport assay. It counts as ADME, cell-based.

In test [2] the target is ATP-binding cassette sub-family C member 3 (Homo sapiens, UniProt O15438). Briefly: Inhibition of human MRP3 overexpressed in Sf9 insect cell membrane vesicles assessed as uptake of [3H]-estradiol-17beta-D-glucuronide in presence of ATP and GSH measured after 10 mins by membrane vesicle transport assay. It counts as ADME, cell-based.
Test [3] deals with ATP-binding cassette sub-family C member 2 (Homo sapiens, UniProt Q92887). The experiment in a line: Inhibition of human MRP2 overexpressed in Sf9 cell membrane vesicles assessed as uptake of [3H]-estradiol-17beta-D-glucuronide in presence of ATP and GSH measured after 20 mins by membrane vesicle transport assay.
The next test has as its target Bile salt export pump (Homo sapiens, UniProt O95342). Briefly: Inhibition of human BSEP overexpressed in Sf9 cell membrane vesicles assessed as uptake of [3H]-taurocholate in presence of ATP measured after 15 to 20 mins by membrane vesicle transport assay. It counts as ADME, cell-based.

Bile salt export pump, sequence (O95342 whole entry): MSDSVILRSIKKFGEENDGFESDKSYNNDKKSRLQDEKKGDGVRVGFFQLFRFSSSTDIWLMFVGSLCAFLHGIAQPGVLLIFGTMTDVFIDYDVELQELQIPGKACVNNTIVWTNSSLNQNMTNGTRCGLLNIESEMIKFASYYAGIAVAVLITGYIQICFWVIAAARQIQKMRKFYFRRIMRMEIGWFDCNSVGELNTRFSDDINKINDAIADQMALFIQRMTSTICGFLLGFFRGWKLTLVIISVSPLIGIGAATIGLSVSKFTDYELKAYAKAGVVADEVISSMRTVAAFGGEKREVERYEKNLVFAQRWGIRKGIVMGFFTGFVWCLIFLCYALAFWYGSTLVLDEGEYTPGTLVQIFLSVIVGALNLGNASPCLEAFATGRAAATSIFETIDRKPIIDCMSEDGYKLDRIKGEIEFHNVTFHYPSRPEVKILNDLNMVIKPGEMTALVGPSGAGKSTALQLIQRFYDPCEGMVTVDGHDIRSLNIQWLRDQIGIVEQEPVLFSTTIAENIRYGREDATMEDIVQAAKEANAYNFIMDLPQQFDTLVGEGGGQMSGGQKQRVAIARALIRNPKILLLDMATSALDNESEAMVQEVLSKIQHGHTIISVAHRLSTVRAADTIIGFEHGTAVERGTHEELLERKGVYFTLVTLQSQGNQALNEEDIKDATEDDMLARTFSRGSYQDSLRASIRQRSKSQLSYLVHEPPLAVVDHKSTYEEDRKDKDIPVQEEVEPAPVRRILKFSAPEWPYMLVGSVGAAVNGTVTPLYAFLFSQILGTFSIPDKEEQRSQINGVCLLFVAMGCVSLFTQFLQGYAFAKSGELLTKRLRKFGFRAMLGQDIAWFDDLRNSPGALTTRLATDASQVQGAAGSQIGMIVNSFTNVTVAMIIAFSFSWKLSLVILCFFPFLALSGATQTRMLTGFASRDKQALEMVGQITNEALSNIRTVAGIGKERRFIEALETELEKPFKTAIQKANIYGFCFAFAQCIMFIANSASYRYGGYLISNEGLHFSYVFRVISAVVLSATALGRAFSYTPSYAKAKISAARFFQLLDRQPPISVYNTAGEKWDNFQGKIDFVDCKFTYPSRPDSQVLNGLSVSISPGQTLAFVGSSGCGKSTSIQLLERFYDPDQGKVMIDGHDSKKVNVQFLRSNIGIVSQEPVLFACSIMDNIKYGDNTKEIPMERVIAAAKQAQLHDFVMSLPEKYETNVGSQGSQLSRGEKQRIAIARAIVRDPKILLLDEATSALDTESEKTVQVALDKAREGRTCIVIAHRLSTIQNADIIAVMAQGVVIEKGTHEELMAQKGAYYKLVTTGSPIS
ATP-binding cassette sub-family C member 3, sequence (O15438 whole entry): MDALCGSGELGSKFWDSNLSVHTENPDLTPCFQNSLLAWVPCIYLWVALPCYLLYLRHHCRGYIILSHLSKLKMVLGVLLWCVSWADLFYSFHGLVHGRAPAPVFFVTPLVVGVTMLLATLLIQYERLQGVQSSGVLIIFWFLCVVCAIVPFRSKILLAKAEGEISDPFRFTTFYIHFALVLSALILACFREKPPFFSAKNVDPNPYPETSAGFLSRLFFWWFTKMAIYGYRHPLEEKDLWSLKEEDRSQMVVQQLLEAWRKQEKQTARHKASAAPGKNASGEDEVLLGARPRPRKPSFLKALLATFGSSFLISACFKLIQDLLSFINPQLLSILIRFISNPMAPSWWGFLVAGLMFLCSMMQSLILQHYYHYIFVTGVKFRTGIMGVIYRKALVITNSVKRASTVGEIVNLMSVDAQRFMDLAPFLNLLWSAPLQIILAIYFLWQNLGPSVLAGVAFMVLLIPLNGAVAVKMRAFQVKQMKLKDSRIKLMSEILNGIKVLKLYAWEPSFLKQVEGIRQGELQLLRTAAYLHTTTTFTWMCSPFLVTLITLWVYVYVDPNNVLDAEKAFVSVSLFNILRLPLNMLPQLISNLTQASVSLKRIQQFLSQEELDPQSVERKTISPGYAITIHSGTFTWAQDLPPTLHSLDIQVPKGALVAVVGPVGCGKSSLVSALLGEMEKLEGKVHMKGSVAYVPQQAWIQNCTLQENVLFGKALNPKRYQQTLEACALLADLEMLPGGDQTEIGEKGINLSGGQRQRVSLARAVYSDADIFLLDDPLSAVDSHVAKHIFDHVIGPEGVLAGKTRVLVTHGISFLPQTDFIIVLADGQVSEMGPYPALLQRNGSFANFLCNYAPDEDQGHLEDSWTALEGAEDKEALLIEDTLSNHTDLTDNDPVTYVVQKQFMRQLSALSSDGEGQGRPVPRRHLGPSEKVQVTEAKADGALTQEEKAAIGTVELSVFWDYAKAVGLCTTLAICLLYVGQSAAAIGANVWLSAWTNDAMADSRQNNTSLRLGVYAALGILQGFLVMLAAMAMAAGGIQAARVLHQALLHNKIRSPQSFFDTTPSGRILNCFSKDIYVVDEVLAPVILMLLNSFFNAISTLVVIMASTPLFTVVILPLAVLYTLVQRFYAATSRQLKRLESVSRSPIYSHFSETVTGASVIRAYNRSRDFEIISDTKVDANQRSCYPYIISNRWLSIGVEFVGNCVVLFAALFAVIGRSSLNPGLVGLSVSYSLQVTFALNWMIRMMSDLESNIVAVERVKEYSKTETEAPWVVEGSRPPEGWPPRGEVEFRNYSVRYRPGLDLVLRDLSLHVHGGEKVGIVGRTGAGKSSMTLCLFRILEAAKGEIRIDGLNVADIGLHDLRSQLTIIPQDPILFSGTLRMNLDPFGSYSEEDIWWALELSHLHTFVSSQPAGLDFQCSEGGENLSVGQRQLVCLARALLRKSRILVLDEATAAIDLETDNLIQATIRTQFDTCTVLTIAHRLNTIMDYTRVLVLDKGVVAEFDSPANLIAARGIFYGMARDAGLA
ATP-binding cassette sub-family C member 2, sequence (Q92887 whole entry): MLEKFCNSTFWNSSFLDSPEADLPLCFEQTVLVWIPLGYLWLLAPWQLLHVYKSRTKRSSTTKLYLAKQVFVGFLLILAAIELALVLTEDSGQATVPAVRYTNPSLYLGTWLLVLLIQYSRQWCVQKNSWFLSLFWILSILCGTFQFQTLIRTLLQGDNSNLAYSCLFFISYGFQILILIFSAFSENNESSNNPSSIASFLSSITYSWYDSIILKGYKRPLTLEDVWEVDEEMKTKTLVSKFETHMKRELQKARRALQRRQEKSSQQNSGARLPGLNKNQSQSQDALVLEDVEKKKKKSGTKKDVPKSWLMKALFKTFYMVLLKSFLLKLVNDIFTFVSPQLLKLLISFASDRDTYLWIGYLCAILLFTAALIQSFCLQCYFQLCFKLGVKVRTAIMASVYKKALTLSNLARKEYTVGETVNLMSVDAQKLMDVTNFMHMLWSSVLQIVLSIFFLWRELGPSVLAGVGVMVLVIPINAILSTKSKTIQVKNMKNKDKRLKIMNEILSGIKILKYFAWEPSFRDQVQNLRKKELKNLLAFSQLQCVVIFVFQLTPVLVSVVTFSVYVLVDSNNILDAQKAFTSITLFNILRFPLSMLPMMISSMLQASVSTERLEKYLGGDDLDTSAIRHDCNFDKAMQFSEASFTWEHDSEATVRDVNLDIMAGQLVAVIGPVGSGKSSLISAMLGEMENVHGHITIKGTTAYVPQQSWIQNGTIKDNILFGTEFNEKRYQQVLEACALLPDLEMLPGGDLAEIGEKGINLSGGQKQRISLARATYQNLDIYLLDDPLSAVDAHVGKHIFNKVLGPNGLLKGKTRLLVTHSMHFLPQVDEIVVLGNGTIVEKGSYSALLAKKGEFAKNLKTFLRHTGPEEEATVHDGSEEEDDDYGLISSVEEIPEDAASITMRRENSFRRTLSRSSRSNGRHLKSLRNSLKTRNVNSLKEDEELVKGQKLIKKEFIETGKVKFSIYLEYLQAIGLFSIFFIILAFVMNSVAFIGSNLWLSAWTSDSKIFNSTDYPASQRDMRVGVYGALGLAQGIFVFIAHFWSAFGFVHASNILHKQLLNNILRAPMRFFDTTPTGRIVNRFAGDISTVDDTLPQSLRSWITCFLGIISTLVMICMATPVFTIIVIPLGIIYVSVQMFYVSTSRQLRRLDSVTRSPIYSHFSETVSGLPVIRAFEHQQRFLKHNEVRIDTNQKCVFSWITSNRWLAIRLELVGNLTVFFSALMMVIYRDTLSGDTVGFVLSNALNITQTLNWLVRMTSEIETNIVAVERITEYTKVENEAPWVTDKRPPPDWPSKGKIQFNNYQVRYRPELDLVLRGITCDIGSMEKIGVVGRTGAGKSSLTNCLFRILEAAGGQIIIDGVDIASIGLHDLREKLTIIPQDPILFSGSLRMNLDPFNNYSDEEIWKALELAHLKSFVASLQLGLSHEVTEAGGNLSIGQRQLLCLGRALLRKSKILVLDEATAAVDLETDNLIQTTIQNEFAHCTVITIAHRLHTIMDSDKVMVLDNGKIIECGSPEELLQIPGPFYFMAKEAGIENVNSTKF

In general, pIC50 refers to −log10 of the IC50, conventionally taken in molar units. As for `NC(=O)CC[C@@H]1NC(=O)[C@H](Cc2ccccc2)NC(=O)[C@H](Cc2ccc(O)cc2)NC(=O)CCSSC[C@@H](C(=O)N2CCC[C@H]2C(=O)N[C@H](CCCN=C(N)N)C(=O)NCC(N)=O)NC(=O)[C@H](CC(N)=O)NC1=O` [DESMOPRESSIN ACETATE], the pIC50 (in test [1]; in test [2]; in test [3]; at Bile salt export pump) was less than 3.88 in each case.

For the compound `CCn1cc(C(=O)O)c(=O)c2cc(F)c(N3CCNCC3)nc21` [ENOXACIN], the pIC50 (in test [1]; in test [2]; in test [3]; at Bile salt export pump) was less than 3.88 each time.

On to `c1cnc(N2CCN(Cc3ccc4c(c3)OCO4)CC2)nc1` [PIRIBEDIL], for which the pIC50 (in test [1]; in test [2]; in test [3]; at Bile salt export pump) was less than 3.88 throughout.

Regarding `NC(=O)c1cnccn1` [PYRAZINAMIDE], the pIC50 (in test [1]; in test [2]; in test [3]; at Bile salt export pump) was less than 3.88 throughout.

On to `CC(C)(C#N)c1cc(Cn2cncn2)cc(C(C)(C)C#N)c1` [ANASTROZOLE], for which the pIC50 (in test [1]; in test [2]; in test [3]; on Bile salt export pump) was less than 3.88 in each case.

In the case of `CCN(C(C)=O)c1cccc(-c2ccnc3c(C#N)cnn23)c1` [ZALEPLON], the pIC50 (in test [1]; in test [2]; in test [3]; at Bile salt export pump) was less than 3.88 each time.

Turning to `CC(CN1c2ccccc2Sc2ccccc21)N(C)C` (stereo not drawn) [PROMETHAZINE], the pIC50 (in test [1]; in test [2]; in test [3]; at Bile salt export pump) was less than 3.88 each time.

Turning to `CC(=O)N(CC(O)CO)c1c(I)c(C(=O)NCC(O)CO)c(I)c(C(=O)NCC(O)CO)c1I` (stereo not drawn) [IOHEXOL], the pIC50 (in test [1]; in test [2]; in test [3]; on Bile salt export pump) was less than 3.88 in each case.

With `CC(C)(C)NCC(O)COc1cccc2c1CC(O)C(O)C2` (stereo not drawn) [NADOLOL], the pIC50 (in test [1]; in test [2]; in test [3]; at Bile salt export pump) was less than 3.88 each time.

As to `CCC1(c2ccccc2)C(=O)NCNC1=O` [PRIMIDONE], the pIC50 (in test [1]; in test [2]; in test [3]; on Bile salt export pump) was less than 3.88 each time.

For the compound `CC(C)NCC(O)COc1ccc(CC(N)=O)cc1` (stereo not drawn) [ATENOLOL], the pIC50 (in test [1]; in test [2]; in test [3]; at Bile salt export pump) was less than 3.88 throughout.

For `COc1c(N2C[C@@H]3CCCN[C@@H]3C2)c(F)cc2c(=O)c(C(=O)O)cn(C3CC3)c12` [MOXIFLOXACIN HYDROCHLORIDE], the pIC50 (in test [1]; in test [2]; in test [3]; at Bile salt export pump) was less than 3.88 throughout.

`CCC(=O)NCC[C@@H]1CCc2ccc3c(c21)CCO3` [RAMELTEON]: the pIC50 (in test [1]; in test [2]; in test [3]; at Bile salt export pump) was less than 3.88 in each case.

Take `O=C(c1ccccc1)c1ccc2n1CCC2C(=O)O` (stereo not drawn) [KETOROLAC TROMETHAMINE]: the pIC50 in test [1] is 5.57; in test [2] it was less than 3.88; in test [3], less than 3.88; at Bile salt export pump it was less than 3.88.

As to `CN(C)CCc1c[nH]c2ccc(Cn3cncn3)cc12` [RIZATRIPTAN BENZOATE], the pIC50 (in test [1]; in test [2]; in test [3]; at Bile salt export pump) was less than 3.88 throughout.

For `CCCCCNC(=N)N/N=C/c1c[nH]c2ccc(OC)cc12` [TEGASEROD MALEATE], the pIC50 (in test [1]; in test [2]; in test [3]; on Bile salt export pump) was less than 3.88 each time.

As for `C[C@@H]1CN(c2c(F)c(N)c3c(=O)c(C(=O)O)cn(C4CC4)c3c2F)C[C@H](C)N1` [SPARFLOXACIN], the pIC50 (in test [1]; in test [2]; in test [3]; at Bile salt export pump) was less than 3.88 in each case.

As to `CN1CC(=O)N2[C@H](c3ccc4c(c3)OCO4)c3[nH]c4ccccc4c3C[C@@H]2C1=O`, the pIC50 (in test [1]; in test [2]; in test [3]; on Bile salt export pump) was less than 3.88 in each case.

Turning to `C[C@@H](O)[C@H]1C(=O)N2C(C(=O)O)=C(S[C@@H]3CN[C@H](C(=O)N(C)C)C3)[C@H](C)[C@H]12` [MEROPENEM], the pIC50 (in test [1]; in test [2]; in test [3]; at Bile salt export pump) was less than 3.88 throughout.

With `Cc1ncc([N+](=O)[O-])n1CC(O)CCl` (stereo not drawn) [ORNIDAZOLE], the pIC50 (in test [1]; in test [2]; in test [3]; at Bile salt export pump) was less than 3.88 each time.

As for `O=C(c1ccc(F)cc1)C1CCN(CCn2c(=O)[nH]c3ccccc3c2=O)CC1` [KETANSERIN], the pIC50 (in test [1]; in test [2]; in test [3]; on Bile salt export pump) was less than 3.88 throughout.

On to `Nc1nc(F)nc2c1ncn2[C@@H]1O[C@H](COP(=O)(O)O)[C@@H](O)[C@@H]1O` [FLUDARABINE PHOSPHATE], for which the pIC50 (in test [1]; in test [2]; in test [3]; at Bile salt export pump) was less than 3.88 in each case.

`CC(C)N(CCC(C(N)=O)(c1ccccc1)c1ccccn1)C(C)C` (stereo not drawn) [DISOPYRAMIDE]: the pIC50 (in test [1]; in test [2]; in test [3]; on Bile salt export pump) was less than 3.88 each time.

Regarding `CCN(CC)C(=O)c1cccnc1` [NIKETHAMIDE], the pIC50 (in test [1]; in test [2]; in test [3]; on Bile salt export pump) was less than 3.88 in each case.

As for `Cc1cn([C@H]2C=C[C@@H](CO)O2)c(=O)[nH]c1=O` [STAVUDINE], the pIC50 (in test [1]; in test [2]; in test [3]; at Bile salt export pump) was less than 3.88 in each case.

Take `CC(=O)Oc1cccc2c1C(=O)c1c(OC(C)=O)cc(C(=O)O)cc1C2=O` [DIACEREIN]: the pIC50 in test [1] is 5.19; in test [2] it was less than 3.88; in test [3], less than 3.88; at Bile salt export pump it was less than 3.88.

Turning to `CCCN[C@H]1CCc2nc(N)sc2C1` [PRAMIPEXOLE], the pIC50 (in test [1]; in test [2]; in test [3]; on Bile salt export pump) was less than 3.88 in each case.

Take `O=C1Nc2ccc(Cl)cc2[C@@](C#CC2CC2)(C(F)(F)F)O1` [EFAVIRENZ]: the pIC50 (in test [1]; in test [2]; in test [3]; on Bile salt export pump) was less than 3.88 throughout.

As to `Cc1ccnc2c1NC(=O)c1cccnc1N2C1CC1` [NEVIRAPINE], the pIC50 (in test [1]; in test [2]; in test [3]; at Bile salt export pump) was less than 3.88 in each case.

Consider `NC(=O)N1c2ccccc2C=Cc2ccccc21` [CARBAMAZEPINE], for which the pIC50 (in test [1]; in test [2]; in test [3]; at Bile salt export pump) was less than 3.88 throughout.

With `Oc1ncnc2[nH]ncc12` [ALLOPURINOL], the pIC50 (in test [1]; in test [2]; in test [3]; at Bile salt export pump) was less than 3.88 throughout.

With `CC(=O)NC[C@H]1CN(c2ccc(N3CCOCC3)c(F)c2)C(=O)O1` [LINEZOLID], the pIC50 (in test [1]; in test [2]; in test [3]; on Bile salt export pump) was less than 3.88 each time.
